# In patent US8013006B2:
# Tested on: HCV replicon
# Assay: microbe, parasite or virus in culture
# Type: cell-based
# Conditions: Replicon IC50 values are determined by firefly luciferase signal; bicistronic replicon, 2 days; read-out: Replicon IC5Os
row,Compound,IC50 [nM]
1,CCn1cc(-c2nccs2)c2ccc(C(=O)OC)cc21 [Compound 78],> 2000
2,CCn1c(-c2ccc(C(C)C)cc2)c(C#N)c2ccc(C(N)=O)cc21 [Compound 79],> 2000
3,CCn1c(-c2ccc(NS(=O)(=O)CC)cc2)c(C#N)c2ccc(OC)cc21 [Compound 83],< 500
4,COc1ccc2c(C#N)c(-c3ccc(NS(C)(=O)=O)cc3)n(C3CCC3)c2c1 [Compound 87],< 500
5,COc1ccc(-n2cc(C#N)c3ccc(C(=O)NO)cc32)cc1 [Compound 89],500 to 2000
6,COc1ccc(-n2cc(C#N)c3ccc(NC(=O)OC(C)(C)C)cc32)cc1 [Compound 90],> 2000
7,COc1ccc(C#Cc2c(C#N)c3ccc(OC)cc3n2C)cc1 [Compound 92],> 2000
8,COc1ccc2c(C#N)c(C#Cc3ccc(F)cc3)n(C)c2c1 [Compound 93],> 2000
9,COc1ccc(-n2cc(C#N)c3ccc(NC(=O)NC(C)(C)C)cc32)cc1 [Compound 98],> 2000
10,COc1ccc2c(C#N)c(-c3cccc(C)c3)n(C)c2c1 [Compound 100],> 2000
11,COc1ccc(-n2cc(C#N)c3ccc(F)cc32)cc1 [Compound 102],> 2000
12,COc1ccc(-n2cc(C#N)c3ccc(C)cc32)cc1 [Compound 103],> 2000
13,COc1ccc(-n2cc(-c3nc(C(C)(C)C)cs3)c3ccc(C(N)=O)cc32)cc1 [Compound 104],500 to 2000
14,COC(=O)c1ccc2c(-c3nc(-c4ccncc4)cs3)cn(-c3ccc(OC)cc3)c2c1 [Compound 105],> 2000
15,COc1ccc(-n2cc(-c3nc(-c4ccc(Cl)c(Cl)c4)cs3)c3ccc(C(N)=O)cc32)cc1 [Compound 106],> 2000
16,CCn1cc(C#N)c2cc(Br)ccc21 [Compound 108],> 2000
17,CCCn1cc(C#N)c2cc(Br)ccc21 [Compound 109],> 2000
18,CCOC(=O)c1ccc(-c2c(C#N)c3ccc(OC)cc3n2CC)cc1 [Compound 110],500 to 2000
19,Cc1ccc2c(C#N)cn(-c3ccc4c(c3)OCO4)c2c1 [Compound 112],500 to 2000

row,Compound,IC50 [nM]
1,CCn1c(-c2ccc(C(=O)N3CCCC3)cc2)c(C#N)c2ccc(OC)cc21 [Compound 113],> 2000
2,CCn1c(-c2ccc(C(=O)N3CCOCC3)cc2)c(C#N)c2ccc(OC)cc21 [Compound 114],> 2000
3,N#Cc1c[nH]c2cc(Cl)ccc12 [Compound 115],> 2000
4,COc1ccc(-n2cc(C#N)c3ccccc32)cc1 [Compound 117],> 2000
5,CCn1cc(C#N)c2ccc(Cl)cc21 [Compound 118],500 to 2000
6,CCn1c(-c2ccc(NC(=O)OCc3ccccc3)cc2)c(C#N)c2ccc(OC)cc21 [Compound 122],> 2000
7,CCn1cc(C#N)c2ccc(C(F)(F)F)cc21 [Compound 123],> 2000
8,Cc1ccc2c(C#N)c(C)n(-c3ccc4c(c3)OCO4)c2c1 [Compound 125],500 to 2000
9,CCn1cc(C#N)c2ccc(Br)cc21 [Compound 126],> 2000
10,COc1ccc(-n2cc(C#N)c3ccc(Br)cc32)cc1 [Compound 127],> 2000
11,CCn1c(C#Cc2cccc3ccccc23)c(C#N)c2ccc(OC)cc21 [Compound 133],500 to 2000
12,CCn1c(C#Cc2ccccc2Br)c(C#N)c2ccc(OC)cc21 [Compound 136],500 to 2000
13,CCn1c(C#Cc2ccc(OC)cc2C)c(C#N)c2ccc(OC)cc21 [Compound 137],500 to 2000
14,CCn1cc(C#N)c2cc(-c3cccs3)ccc21 [Compound 140],> 2000
15,CCn1cc(C#N)c2cc(-c3ccoc3)ccc21 [Compound 142],> 2000
16,CCn1c(C#Cc2ccc(N3CCCCC3)cc2)c(C#N)c2ccc(OC)cc21 [Compound 143],> 2000
17,CCn1c(C#Cc2cccc(Cl)c2)c(C#N)c2ccc(OC)cc21 [Compound 146],500 to 2000
18,CCn1c(C#Cc2ccc(N(C)C)cc2)c(C#N)c2ccc(OC)cc21 [Compound 147],500 to 2000
19,CCn1c(C#Cc2ccc(Cl)cc2)c(C#N)c2ccc(OC)cc21 [Compound 148],500 to 2000
